Experimental data reported in patent US20240208992A1, “MACROCYCLES AS CFTR MODULATORS” (Idorsia Pharmaceuticals Ltd, priority 2021, published 2024).

Biological target: human F508del-CFTR (Homo sapiens, UniProt P13569, DEL508-508)
Assay: F508del-CFTR cell surface expression (corrector activity), DiscoveRx ß-galactosidase complementation chemiluminescence assay in recombinant U2OS cell line;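 further: U2OS cells co-expressing ProLink-tagged F508del-CFTR and a membrane-anchored enzyme acceptor, where more surface CFTR restores β-galactosidase activity measured by chemiluminescence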
Details: for EC50: EC50, F508del-CFTR cell surface expression; for Emax: U2OS
[1] = U2OS cell line, 16h compound incubation, geomean values
[2] = in relation to the Emax of the corrector lumacaftor (=100%), U2OS cell line, 16h compound incubation, arithmetic mean values
[3] = U2OS cells, 16h compound incubation, geomean values
[4] = in relation to Emax of corrector lumacaftor (=100%), arithmetic mean values

Chain of human F508del-CFTR (P13569 with tags, fused parts or gaps DEL508-508): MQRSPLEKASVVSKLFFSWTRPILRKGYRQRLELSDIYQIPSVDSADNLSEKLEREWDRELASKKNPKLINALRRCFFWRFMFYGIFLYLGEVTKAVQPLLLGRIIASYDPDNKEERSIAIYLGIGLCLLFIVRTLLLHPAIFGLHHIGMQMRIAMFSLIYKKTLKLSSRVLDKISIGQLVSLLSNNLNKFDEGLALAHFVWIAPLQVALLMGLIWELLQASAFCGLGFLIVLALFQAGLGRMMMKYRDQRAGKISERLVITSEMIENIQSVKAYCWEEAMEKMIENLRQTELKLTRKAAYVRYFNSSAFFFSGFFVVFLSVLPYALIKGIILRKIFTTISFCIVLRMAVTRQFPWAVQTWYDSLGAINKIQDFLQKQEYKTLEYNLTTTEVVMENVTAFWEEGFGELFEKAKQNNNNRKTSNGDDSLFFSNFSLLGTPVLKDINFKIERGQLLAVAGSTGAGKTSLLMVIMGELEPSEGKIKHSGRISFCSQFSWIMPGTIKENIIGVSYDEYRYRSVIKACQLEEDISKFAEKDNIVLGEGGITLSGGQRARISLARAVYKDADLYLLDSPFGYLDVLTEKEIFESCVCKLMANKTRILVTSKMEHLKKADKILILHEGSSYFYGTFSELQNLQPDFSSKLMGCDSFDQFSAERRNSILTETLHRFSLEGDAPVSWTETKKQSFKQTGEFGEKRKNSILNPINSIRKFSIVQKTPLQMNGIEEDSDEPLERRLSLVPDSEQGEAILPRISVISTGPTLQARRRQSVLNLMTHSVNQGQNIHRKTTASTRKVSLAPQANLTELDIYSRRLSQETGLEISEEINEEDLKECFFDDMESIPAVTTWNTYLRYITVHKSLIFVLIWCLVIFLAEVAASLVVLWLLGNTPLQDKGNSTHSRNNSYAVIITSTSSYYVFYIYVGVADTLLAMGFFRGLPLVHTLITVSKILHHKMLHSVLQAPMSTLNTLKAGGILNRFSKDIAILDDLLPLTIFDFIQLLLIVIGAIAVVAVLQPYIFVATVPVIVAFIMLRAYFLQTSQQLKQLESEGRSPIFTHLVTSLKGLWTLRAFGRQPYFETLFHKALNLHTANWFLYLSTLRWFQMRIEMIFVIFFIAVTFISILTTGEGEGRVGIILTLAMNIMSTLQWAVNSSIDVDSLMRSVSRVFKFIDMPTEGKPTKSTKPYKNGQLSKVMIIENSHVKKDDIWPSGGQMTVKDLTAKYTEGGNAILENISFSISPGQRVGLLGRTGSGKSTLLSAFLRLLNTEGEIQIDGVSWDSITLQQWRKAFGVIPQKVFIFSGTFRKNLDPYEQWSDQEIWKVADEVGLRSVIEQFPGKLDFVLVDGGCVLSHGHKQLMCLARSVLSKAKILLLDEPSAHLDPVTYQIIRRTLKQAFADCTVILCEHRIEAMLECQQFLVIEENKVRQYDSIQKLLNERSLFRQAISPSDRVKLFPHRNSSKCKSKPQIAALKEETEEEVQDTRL

Row | EC50 [3] | Emax [4] | Compound | EC50 [1] | further results
1 | – | – | COc1cccc2c1C(=O)N[C@H](C(=O)NCCc1ccc3c(c1)CCCO3)CC(=O)N(C)[C@@H](CC(C)C)C(=O)N(CCC1CCCCC1)CC(=O)N[C@H](Cc1ccccc1)CO2 (mixture of isomers) [Example 11, (3R,9S,13RS)-3-benzyl-N-(2-(chroman-6-yl)ethyl)-7-(2-cyclohexylethyl)-9-isobutyl-16-methoxy-10-methyl-5,8,11,15-tetraoxo-2,3,4,5,6,7,8,9,10,11,12,13,14,15-tetradecahydrobenzo[p][1]oxa[4,7,10,14]tetraazacycloheptadecine-13-carboxamide] | 182 nM | –
2 | – | – | COc1cc(OCC[C@@H]2C(=O)N[C@H](Cc3ccccc3)COc3cc(C)nc(OC)c3C(=O)N[C@H](C(=O)NCCc3cc(OC)no3)CC(=O)N(C)[C@@H](CC(C)C)C(=O)N2C)ccn1 [Example 978, (3R,6R,9S,13S)-3-benzyl-9-isobutyl-16-methoxy-N-(2-(3-methoxyisoxazol-5-yl)ethyl)-6-(2-((2-methoxypyridin-4-yl)oxy)ethyl)-7,10,18-trimethyl-5,8,11,15-tetraoxo-2,3,4,5,6,7,8,9,10,11,12,13,14,15-tetradecahydropyrido[3,4-p][1]oxa[4,7,10,14]tetraazacycloheptadecine-13-carboxamide] | – | EC50 (U2OS cells, 16h compound incubation, geomean of several measurements): 129 nM; Emax (in relation to the Emax of the corrector lumacaftor (=100%), U2OS cells, 16h compound incubation, arithmetic mean): 457%
3 | – | – | COc1cccc(CCNC(=O)[C@@H]2CC(=O)N(C)[C@@H](CC(C)C)C(=O)N3CCN(C4CC4)C[C@H]3C(=O)N[C@H](Cc3ccccc3)COc3cnc4ccccc4c3C(=O)N2)c1 [Example 388, (9S,13S,19aS,22R)-22-benzyl-18-cyclopropyl-13-isobutyl-N-(3-methoxyphenethyl)-12-methyl-7,11,14,20-tetraoxo-7,8,9,10,11,12,13,14,17,18,19,19a,20,21,22,23-hexadecahydro-16H-pyrazino[2′,11:6,7][1]oxa[4,7,10,14]tetraazacycloheptadecino[17,16-c]quinoline-9-carboxamide] | 310 nM | Emax [2]: 163%
4 | 895 nM | 119% | Cc1cc(CCNC(=O)[C@@H]2CC(=O)N(C)[C@@H](CC3CCCC3)C(=O)N3CCOC[C@@H]3C(=O)N[C@H](Cc3ccccc3)COc3ccc4nc(C)oc4c3C(=O)N2)on1 [Example 435] | – | –
5 | – | – | CC(C)C[C@H]1C(=O)N(C)C2(CC2)C(=O)N[C@H](Cc2ccccc2)COc2cnc3ccccc3c2C(=O)N[C@H](C(=O)NCCc2nc(C3CC3)no2)CC(=O)N1C [Example 121, (3′S,7′S,13′R)-13′-benzyl-N-(2-(3-cyclopropyl-1,2,4-oxadiazol-5-yl)ethyl)-7′-isobutyl-6′,9′-dimethyl-1′,5′,8′,11′-tetraoxo-2′,3′,4′,5′,6′,7′,8′,9′,11′,12′,13′,14′-dodecahydro-1′H-spiro[cyclopropane-1,10′-[1]oxa[4,7,10,14]tetraazacycloheptadecino[17,16-c]quinoline]-3′-carboxamide] | 615 nM | Emax [2]: 354%
6 | 190 nM | 323% | CC(C)C[C@H]1C(=O)N(C)[C@H](C)C(=O)N[C@H](Cc2ccccc2)COc2ccc3ncc(F)cc3c2C(=O)N[C@H](C(=O)NCCn2ncc(C3CC3)n2)CC(=O)N1C [Example 787, (3S,7S,10R,13R)-13-benzyl-N-(2-(4-cyclopropyl-2H-1,2,3-triazol-2-yl)ethyl)-20-fluoro-7-isobutyl-6,9,10-trimethyl-1,5,8,11-tetraoxo-1,2,3,4,5,6,7,8,9,10,11,12,13,14-tetradecahydro-[1]oxa[4,7,10,14]tetraazacycloheptadecino[16,17-f]quinoline-3-carboxamide] | – | –

Row | Compound | EC50 [3] | Emax [4] | EC50 [1] | further results
7 | COc1cccc(CCNC(=O)[C@@H]2CC(=O)N(C)[C@@H](CC(C)C)C(=O)N(C)CC(=O)N[C@H](Cc3ccccc3)COc3ccc4ncc(F)cc4c3C(=O)N2)c1 [Example 507, (3S,7S,13R)-13-benzyl-20-fluoro-7-isobutyl-N-(3-methoxyphenethyl)-6,9-dimethyl-1,5,8,11-tetraoxo-1,2,3,4,5,6,7,8,9,10,11,12,13,14-tetradecahydro-[1]oxa[4,7,10,14]tetraazacycloheptadecino[16,17-f]quinoline-3-carboxamide] | 469 nM | 337% | – | –
